Experimental data published in PMC6713189, “Dual and selective inhibitors of pteridine reductase 1 (PTR1) and dihydrofolate reductase-thymidylate synthase (DHFR-TS) from Leishmania chagasi” (Journal of Enzyme Inhibition and Medicinal Chemistry, 2019).
Several values for one entry are separate records, joined by “and”; a condition that tells them apart may be missing. Identical values can stand only once. Like-named read-outs stand apart in the source and are kept apart here. Values belong to the compound of their own block, whether it stands above or below them.

Legend:
LcPTR1 [1] = target: T1, LcPTR1 (Leishmania infantum, UniProt A4I067); experiment: Determination of the inhibition mechanism, LcPTR1; type: biochemical
T1 sequence (A4I067 entry or part of it): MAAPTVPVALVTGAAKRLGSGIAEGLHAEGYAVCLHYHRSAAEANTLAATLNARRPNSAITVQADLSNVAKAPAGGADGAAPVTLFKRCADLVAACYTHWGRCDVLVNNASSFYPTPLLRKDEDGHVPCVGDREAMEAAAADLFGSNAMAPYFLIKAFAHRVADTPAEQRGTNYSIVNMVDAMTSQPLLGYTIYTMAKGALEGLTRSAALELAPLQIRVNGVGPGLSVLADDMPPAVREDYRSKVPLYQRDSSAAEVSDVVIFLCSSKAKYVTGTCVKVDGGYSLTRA
Source text: (§1) The results of this analysis were plotted in double-reciprocal graphs for visual analysis purposes only.

LcPTR1 [2] = target: T1, LcPTR1; experiment: LcPTR1 inhibition assay (single concentration and IC50, NADPH consumption at 340 nm); type: biochemical; details: for Ki: obtained from Cheng-Prussov equation for competitive inhibitors; for Selectivity Ki LcPTR1/ Ki LcDHFR-TS: ratio of Ki values
Description: (§2) Kinetic measurements were performed according to the protocol described[32] via spectrophotometer (Shimadzu UV-1800) at pH 4.7 (20 mM sodium acetate). NADPH consumption was monitored spectrophotometrically (340 nm) at constant temperature (30 °C). The variation of the absorbance monitored for 60 s was used to calculate the initial rate of the reaction by linear regression.
(§3) Comparison of the enzymatic activities in the absence and presence of the compounds (50 μM), which were dissolved in DMSO (5% v/v final concentration), was employed to calculate the percent inhibition (Equation (1)) (1) % Inhibition=100 − (Vi/Vc)×100 where Vi is the initial velocity in the presence of the inhibitor and Vc is the reaction rate in the presence of DMSO (5% (v/v)).
as §1

LcDHFR-TS [3] = target: T2, LcDHFR-TS (Leishmania infantum, UniProt Q8MQV3); experiment: LcDHFR-TS inhibition assay (single concentration and IC50, NADPH consumption at 340 nm); type: biochemical; details: for IC50: DHF 5.0 µM, NADPH 5.0 µM, pH 7.0, >50 from single-concentration assay; for Ki: obtained from Cheng-Prussov equation for competitive inhibitors
T2 sequence (Q8MQV3 entry or part of it): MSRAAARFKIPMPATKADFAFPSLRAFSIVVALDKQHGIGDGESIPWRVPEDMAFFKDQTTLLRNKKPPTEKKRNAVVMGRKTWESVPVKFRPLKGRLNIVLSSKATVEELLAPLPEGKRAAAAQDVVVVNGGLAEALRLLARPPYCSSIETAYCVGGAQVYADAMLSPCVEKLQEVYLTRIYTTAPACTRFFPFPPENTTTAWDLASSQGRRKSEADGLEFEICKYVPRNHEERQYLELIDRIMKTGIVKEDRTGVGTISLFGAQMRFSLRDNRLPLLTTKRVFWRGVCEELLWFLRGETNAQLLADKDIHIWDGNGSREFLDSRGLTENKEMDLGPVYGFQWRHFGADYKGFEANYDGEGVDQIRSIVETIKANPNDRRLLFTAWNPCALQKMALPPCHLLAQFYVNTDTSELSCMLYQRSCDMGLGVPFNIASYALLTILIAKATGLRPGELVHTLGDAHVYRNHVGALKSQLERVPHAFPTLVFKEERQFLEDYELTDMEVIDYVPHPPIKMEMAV
Description: (§4) Kinetic measurements were carried out using a standard assay, at pH 7.0 (50 mM sodium phosphate). Briefly, NADPH consumption was monitored spectrophotometrically ([…]) (Shimadzu® UV-1800, Columbia MD, USA) at constant temperature (25 °C) and the absorbance variation within the first 30 s was employed to calculate the initial rate of reaction, by linear regression of the raw data.
as §3, §1

LcDHFR-TS [4] = target: T2, LcDHFR-TS; experiment: Determination of the inhibition mechanism, LcDHFR-TS; type: biochemical
Source text: as §1

L. tropica PTR1 = tested on: L. tropica PTR1; design: method as in PMID 10415124; details: cited from earlier work
LdPTR1 = tested on: LdPTR1; design: method as in PMID 21115787; details: double-reciprocal plot, His-tag fused protein; read-out: Km app for LdPTR1; cited from earlier work
DHFR-TS [5] = details: read-out: Km app for L. tropica DHFR-TS; cited from earlier work
LcPTR1 [6] = target: T1, LcPTR1; type: biochemical, Leishmania chagasi; details: restated without unit; read-out: Km app for LcPTR1
Description: as §2

DHFR-TS [7] = details: read-out: Km app for L. major DHFR-TS; cited from earlier work
L. tarantoleae PTR1 = tested on: L. tarantoleae PTR1; design: method as in PMID 10415124; details: read-out: Km app for L. tarantoleae PTR1; cited from earlier work
L. major PTR1 = details: cited from earlier work
LcDHFR-TS [8] = target: T2, LcDHFR-TS; experiment: LcDHFR-TS apparent Km determination; type: biochemical, Leishmania chagasi
Description: as §4
The effect of the pH (5.0–8.0) over enzymatic activity was investigated with 0.2 μM of LcDHFR-TS and saturating NADPH and DHF concentrations (100 μM) (50 mM citrate buffer was used for pH 5.0 activity assay. 50 mM sodium phosphate buffer was used for pH range 6.0 to 8.0 activity assay). […] All the measurements were carried out in triplicate and the apparent Km values for the cofactor and substrate were determined under a pseudo first-order kinetics assumption using least-squares non-linear regression method, as available in the GraphPad Prism version 5.0 for Windows (GraphPad® Software, San Diego, CA, USA, www.graphpad.com).

[9] = pH 7.0, 25 °C, other substrate saturating
[10] = pH 7.0, 25 °C, other substrate saturating, read-out: Km app for LcDHFR-TS
[11] = restated without unit, read-out: Km app for LcDHFR

Compound: Nc1nc(N)c2ccccc2n1 [Compound 5]
- mechanism of inhibition with respect to biopterin (LcPTR1 [1]): competitive
- mechanism of inhibition with respect to the cofactor NADPH (LcPTR1 [1]): uncompetitive
- IC50 (LcPTR1 [2]): 940 nM
- Ki (LcPTR1 [2]): 470 nM
- inhibition at 50 µM (LcPTR1 [2]; pH 4.7): 98 ± 0.8%
- selectivity index (LcPTR1 [2]; selective LcPTR1 inhibitor, LcPTR1 over LcDHFR-TS (abstract)): 20
- IC50 (LcDHFR-TS [3]): > 50000 nM
- Ki (LcDHFR-TS [3]): > 8330 nM
- inhibition at 50 µM (LcDHFR-TS [3]; pH 7): 20 ± 2.4%

Compound: COc1ccccc1CCc1nc(N)nc(N)c1Cc1ccccc1 [Compound 3]
- IC50 (LcPTR1 [2]): 4600 nM
- Ki (LcPTR1 [2]): 2300 nM
- LcPTR1 inhibition (LcPTR1 [2]; pH 4.7): active
- Selectivity Ki LcPTR1/ Ki LcDHFR-TS (LcPTR1 [2]): 3.3 and 3.29
- IC50 (LcDHFR-TS [3]): 4200 nM
- Ki (LcDHFR-TS [3]): 700 nM
- LcDHFR-TS inhibition (LcDHFR-TS [3]; pH 7): active

Compound: Nc1nc(N)c(Cc2ccccc2)c(CCCc2ccccc2)n1 [Compound 1]
- mechanism of inhibition with respect to biopterin (LcPTR1 [1]): competitive
- mechanism of inhibition with respect to the cofactor NADPH (LcPTR1 [1]): uncompetitive
- IC50 (LcPTR1 [2]): 3000 nM
- Ki (LcPTR1 [2]): 1500 nM
- inhibition at 50 µM (LcPTR1 [2]; pH 4.7): 90 ± 1%
- Selectivity Ki LcPTR1/ Ki LcDHFR-TS (LcPTR1 [2]): 5.4 and 5.45
- NADPH Vmax app in presence of inhibitor (LcDHFR-TS [4]; compound 1 at 2 µM): 1.0 ± 0.1 nmol/min/mL
- NADPH Vmax app in presence of inhibitor (LcDHFR-TS [4]; compound 1 at 5 µM): 0.5 ± 0.05 nmol/min/mL
- DHF Vmax app in presence of inhibitor (LcDHFR-TS [4]; not affected by increasing concentrations of compound 1): 1.9 ± 0.1 nmol/min/mL
- mechanism of inhibition related to cofactor NADPH (LcDHFR-TS [4]; saturating DHF 12.5 µM, varying NADPH): noncompetitive
- mechanism of inhibition related to substrate DHF (LcDHFR-TS [4]; saturating NADPH 50 µM, varying DHF): competitive
- IC50 (LcDHFR-TS [3]): 1650 nM
- Ki (LcDHFR-TS [3]): 280 nM
- inhibition at 50 µM (LcDHFR-TS [3]; pH 7): 100 ± 1.17%

- IC50 (LcPTR1 [2]): 66300 ± 9010 nM
- inhibition at 50 µM (LcPTR1 [2]; pH 4.7): 40 ± 1%
- inhibition at 50 µM (LcDHFR-TS [3]; pH 7): 20 ± 2.4%
Compound: CC(C)Cc1ccc(C(C)c2nc(N)nc(N)c2-c2ccccc2)cc1 (centres unmarked) [Compound 4]

Compound: NC(=O)C1=CN([C@@H]2O[C@H](COP(=O)(O)OP(=O)(O)OC[C@H]3O[C@@H](n4cnc5c(N)ncnc54)[C@H](OP(=O)(O)O)[C@@H]3O)[C@@H](O)[C@H]2O)C=CC1 [NADPH]
- Km (L. tropica PTR1): 19 µM
- Km (LdPTR1): 18.5 µM
- Km (DHFR-TS [5]): 2.7 µM
- Km (LcPTR1 [6]): 37.5 µM
- Km (DHFR-TS [7]): 0.45 µM
- Km (L. tarantoleae PTR1): 19 µM
- Km (L. major PTR1): 6.7 µM
- Vmax app for LcDHFR-TS (LcDHFR-TS [8]; [9]): 1.6 ± 0.1 nmol/min/mL
- Km (LcDHFR-TS [8]; [10]): 2.3 ± 0.5 µM
- Km (LcDHFR-TS [8]; [11]): 2.3 µM

Compound: Nc1nc(N)c(Cc2ccccc2)c(CC2CCCCC2)n1 [Compound 2]
- IC50 (LcPTR1 [2]): 4100 nM
- Ki (LcPTR1 [2]): 2050 nM
- inhibition at 50 µM (LcPTR1 [2]; pH 4.7): 40 ± 1%
- Selectivity Ki LcPTR1/ Ki LcDHFR-TS (LcPTR1 [2]): 0.68
- IC50 (LcDHFR-TS [3]): 18000 nM
- Ki (LcDHFR-TS [3]): 3000 nM
- inhibition at 50 µM (LcDHFR-TS [3]; pH 7): 20 ± 2.4%

Compound: Nc1nc(=O)c2c([nH]1)NCC(CNc1ccc(C(=O)N[C@@H](CCC(=O)O)C(=O)O)cc1)=N2 [DHF]
- Km (DHFR-TS [5]): 1.5 µM
- Km (DHFR-TS [7]): 1.6 µM
- Vmax app for LcDHFR-TS (LcDHFR-TS [8]; [9]): 2.0 ± 0.11 nmol/min/mL
- Km (LcDHFR-TS [8]; [10]): 1 ± 0.2 µM
- Km (LcDHFR-TS [8]; [11]): 1 µM

Compound: biopterin
- Km (L. tropica PTR1): 3.5 µM
- Km (LdPTR1): 5.8 µM
- Km (L. tarantoleae PTR1): 3.5 µM
- Km (L. major PTR1): 4.6 µM
